Assay results as given in patent publication US20230277680A1, “CONJUGATE OF A SINGLE DOMAIN ANTIBODY, A SAPONIN AND AN EFFECTOR MOLECULE, PHARMACEUTICAL COMPOSITION COMPRISING THE SAME, THERAPEUTIC USE OF SAID PHARMACEUTICAL COMPOSITION” (SAPREME TECHNOLOGIES B.V., priority 2020, published 2023).

Legend:
[1] = tested on: A431 cells; experiment: Cell viability (MTS) assay, cell killing; format: cell-based, human; details: read-out: [SO1861] IC50 cell killing, + fixed 10 μM cetuximab-saporin, calculated on concentration SO1861
Description: (§1) After treatment the cells were incubated for 72 hr at 37° C. before the cell viability was determined by a MTS-assay, performed according to the manufacturer's instruction (CellTiter 96® AQueous One Solution Cell Proliferation Assay, Promega). Briefly, the MTS solution was diluted 20× in DMEM without phenol red (PAN-Biotech GmbH) supplemented with 10% FBS. The cells were washed once with 200 μL/PBS well, after which 100 μL diluted MTS solution was added/well. The plate was incubated for approximately 20-30 minutes at 37° C. Subsequently, the OD at 492 nm was measured on a Thermo Scientific Multiskan FC plate reader (Thermo Scientific). For quantification the background signal of ‘medium only’ wells was subtracted from all other wells, before the cell viability percentage of treated/untreated cells was calculated, by dividing the background corrected signal of treated wells over the background corrected signal of the untreated wells (×100). […]
(§2) After treatment the cells were incubated for 72 hr at 37° C. before the cell viability was determined by a MTS-assay, performed according to the manufacturer's instruction (CellTiter 96® AQueous One Solution Cell Proliferation Assay, Promega). […] Subsequently, the optical density at 492 nm was measured on a Thermo Scientific Multiskan FC plate reader (Thermo Scientific). […]

[2] = tested on: SK-BR-3 cells; experiment: Cell viability (MTS) assay, cell killing; format: cell-based, human; details: read-out: [SO1861] IC50 cell killing; SKBR3; + fixed 1.5 μM EGF-dianthin
Description: as §1, §2

## CC(=O)O[C@H]1[C@H](O[C@@H]2OC[C@@H](O)[C@H](O)[C@H]2O)[C@@H](O)[C@H](O[C@@H]2[C@H](O)[C@@H](O[C@@H]3O[C@@H](C)[C@H](O[C@@H]4OC[C@@H](O)[C@H](O[C@@H]5OC[C@@H](O)[C@H](O)[C@H]5O)[C@H]4O)[C@@H](O)[C@H]3O)[C@H](OC(=O)[C@]34CCC(C)(C)C[C@H]3C3=CC[C@@H]5[C@@]6(C)CC[C@H](O[C@H]7O[C@H](C(=O)O)[C@@H](O)[C@H](O[C@@H]8OC[C@@H](O)[C@H](O)[C@H]8O)[C@H]7O[C@@H]7O[C@H](CO)[C@H](O)[C@H](O)[C@H]7O)[C@@](C)(C=O)[C@@H]6CC[C@@]5(C)[C@]3(C)C[C@H]4O)O[C@@H]2C)O[C@@H]1C [SO1861]
[1]
  IC50: 600 nM
[2]
  IC50: 800 nM
